Results as given in patent US12539281B2 (priority 2021, dated 2026).

Columns and labels:
[1] = test system: blood-brain barrier (BBB); test: IA ethyl alcohol, NEO100 or mannitol mediated BBB disruption, extravasated EB dye in perfused mouse brain (Experiments 1-3); type: in vivo, mice; conditions: for EB dye / EB dye penetration level / Patchy, or punctate pattern of EB dye: perfused mouse brain
Method: The method of IA and IC injection is similar to the IV push in the clinic, which comprises essentially the steps of: • pushing the injection composition at a particular infusion flow rate immediately after the placement of the IA catheter into the internal carotid artery (ICA) or the insertion of the injection needle into the left ventricle via the ultrasound-guided intracardiac (IC) puncture at room temperature.
When performing the IA and IC injections, the infusion flow rate is about 5-7 μl/second (0.3-0.45 ml/min), the infusion volume is about […] of the body weight (at 1 μl/g, volume/weight ratio), and USP purified water or sodium chloride is used to reconstitute varied EA solutions at room temperature.
Intracardiac injection of NEO100 or EA can be carried out through the procedure of ultrasound-guided intracardiac (IC) injection. […] The mouse is anesthetized in an induction chamber using 2-3% isoflurane in 100% oxygen at a rate of 0.2-0.5 L/min. Fur over the thorax area is removed and the animal is placed in a stereotactic frame in supine position, securing the upper and lower limbs to avoid body movement. The ultrasound transducer is placed above the chest of the animal, and the injection syringe is anchored to a platform to avoid erratic needle movements. An electrocardiogram monitor is used to monitor heart function during the intracardiac injection.
EB dye is used as the non-BBB permeable substance.
Photographs of the perfused brain tissues of the experimental mice after treatment are taken.
Extravasated EB dye is used as the non-BBB permeable substance.

[2] = test system: blood-brain barrier (BBB)
From the text: EB dye is used as the non-BBB permeable substance. […] Photos of the perfused brain tissues are taken for observations and comparisons.
EB dye is used as a non-BBB-permeable substance. […] Photographs of the perfused brain tissues harvested at different time points are taken for observation and comparison, as shown in FIG. 9 of the drawings.
As a negative control, photographs of perfused brain tissues were taken from the following animals: the normal untreated mice; the mice were intravenously administered 2% EB; and the mice received the same dose of 0.3% EA mixed with a 2% EB solution intravenously as applied via intracardiac injection.

syngeneic mouse glioma = conditions: IA ethyl alcohol+Anti-PD-1 antibody vs untreated control and IV Anti-PD-1 antibody
Method: Standard protocols for immunohistochemistry are followed. The primary antibody is rabbit anti-CD8 (ab4055, Abcam). Three independent experimental fields are examined, and images are analyzed and quantitated using ImageJ software of the National Institutes of Health.

[3] = test system: blood-brain barrier (BBB); test: Comparison of intracardiac EA and NEO100 mediated BBB opening, EB dye (Comparative Experiment 19, Experiment 20); type: in vivo, mice; conditions: mice
Method: Intracardiac injected various concentrations of EA (at 25%, 20%, 3%, 0.3%, and 0.1%, 0.03%, 0.01%) and NEO100 (at 25%, 20%, 3%, 0.3%, and 0.1%, 0.03%, 0.01%) are used on mice to test their effects on BBB disruption and evaluated by the observation of extravasated EB dye in the brain tissues. […] Photographs of the perfused brain tissues from the experimental mice treated with […] EA and NEO100 are taken for observation and comparison.
The same procedure as experiment 19 was performed with IA 0.3% NEO100 with 2% EB dye solution.

[4] = test system: blood-brain barrier (BBB); conditions: rats
From the text: In this experiment, the microcatheter is placed in the left internal carotid artery (ICA). The left internal carotid artery (ICA) leads to the left hemisphere of the brain. (That is, the selected intracerebral artery is the left internal carotid artery (ICA); and the target area is the left hemisphere of the brain.)
Evans blue (EB) dye is used as the non-BBB permeable substance.
To validate the limited, localized, and targeted BBB opening mediated by intra-arterial EA around the area supplied by the corresponding artery, a microcatheter is inserted from the CCA, proceeded along the ICA, positioned at the origin of the MCA, and infused with 300 μL of a 3% EA in a 2% EB dye solution. The effect of the compromised BBB can be determined by observing the penetration of the EB dye (doesn't pass through the BBB in normal physical condition).

[5] = test system: blood-brain barrier (BBB); test: Microcatheter 3% EA-mediated delivery of CD3-positive CAR T cells, confocal imaging (Experiment 26); type: in vivo; conditions: microcatheter 3% EA + 2×10^6 CAR T cells, normal rat
Method: Similarly, the efficacy of microcatheter placement and infusion of an optimal 3% EA-mediated delivery of CAR T cells is validated. The CAR T cells are human CD3 positive, which can be analyzed by immunohistochemistry staining using rabbit anti-human CD3 primary antibody and Alexa Fluor 647-labeled goat anti-rabbit IgG secondary antibody to detect CD3 expression on the surface of CAR T cells by confocal imaging, as shown in FIG. 19. […] The confocal imaging staining is performed to detect the spreading of CD3-positive CAR T cells. The blue color comes from the DAPI-stained nuclei. The red color is Alexa Fluor 647-labeled […], as only the human CAR T cells are CD3 positive.

[6] = test system: blood-brain barrier (BBB); conditions: intracardiac EA 3%, 1%, 0.3%, 0.1%, and 0.01% in 2% EB, rats
From the text: Set up the ultrasound imaging system before anesthetizing the rats; to anesthetize the rats in an induction chamber using 3-4% isoflurane in 100% oxygen at a rate of 0.2-0.5 L/min; to confirm proper anesthetization before performing imaging by pinching the toe, rolling the rats. • 2. Remove the fur over the thorax area using hair removal cream. • 3. Place the experimental animal on the imaging table in the supine position and secure both the upper and lower limbs with adhesive tape to avoid body movement during the procedure. • 4. Clean up the skin of the thorax area using a 10% povidone/iodine swab followed by a 70% ethanol swab. Apply a thick layer of gel to the thorax area of the animal. • 5. Mount the transducer and adjust the position until the left ventricle is clearly visible. • 6. […] To visualize pulsating blood, keep a small air column in the syringe; advance the syringe towards the animal thorax, adjust the needle trajectory using the ultrasound guidance, and enter the left ventricle, and to complete the IC injection within 30 seconds. • 7. Withdraw the needle, release that rat, and monitor until complete recovery from anesthesia
The rats are treated with varying concentrations of EA via intracardiac injection. […] Sham control (without treatment as negative control) is included in this experiment.

[7] = test system: blood-brain barrier (BBB); conditions: group B: 300 μl 3% EA infused in 5 seconds, room temperature
[8] = cited from earlier work
[9] = Comparison of the toxicity of IA NEO100 and IA EA (Experiment 21)
Method: The safety profile of IA 0.3% NEO100 vs. IA 0.3% EA are compared. […] There are 15 experimental mice in each testing group. The potential adverse effects are evaluated.

[10] = IA injection 0.3%, 15 mice per group, number of mice

With CCO [ethyl alcohol] the “spread of EB dye inside the brain tissues” value ([1]; IA EA at 0.3%, 1%, and 3%, mice, superior and sagittal views) was “homogenized, evenly spread EB dye inside the brain tissues is observed”, the EB dye ([1]; IA agent at 0.1%) was “Observed” and the “EB dye penetration level” value ([1]; IA agent at 0.1%) was “Widely”. For the same compound, the “Patchy, or punctate pattern of EB dye” value ([1]; IA agent at 0.1%) was “Not”, the EB dye ([1]; IA agent at 0.3%) was “Observed” and the “EB dye penetration level” value ([1]; IA agent at 0.3%) was “Widely”. The “Patchy, or punctate pattern of EB dye” value ([1]; IA agent at 0.3%) was “Not”, the EB dye ([1]; IA agent at 3%) was “Observed” and the “EB dye penetration level” value ([1]; IA agent at 3%) was “Widely”. For the same compound, the “Patchy, or punctate pattern of EB dye” value ([1]; IA agent at 3%) was “Not”, the EB dye ([1]; IA agent at 5%) was “Observed” and the “EB dye penetration level” value ([1]; IA agent at 5%) was “Widely”. For the same compound, the “Patchy, or punctate pattern of EB dye” value ([1]; IA agent at 5%) was “Not”, the “extravasated EB dye in brain after intravenous EA” value ([2]; 0.3% EA mixed with 2% EB given intravenously (negative control route), mice) was “No extravasated EB dye in any parts of the brain” and the “BBB opening at 0 min time point” value ([2]; IA 0.3% EA then IV 2% EB, euthanized immediately, mice) was “immediate, homogeneous, and highly efficient BBB opening”. For the same compound, the “level of blue color observed in the brain as lagged time of EB administration increased” value ([2]; IA 0.3% ethyl alcohol, EB at 15, 60, 120, 240 min after, mice) was “decreased”, the “interval window of the breached BBB” value ([2]; IA EA) was “about 2 hours” and the adverse effects ([2]; IA/intracardiac 0.3% EA, mice) was “occasional adverse effects, such as mild epilepsy, but no moderate to severe epilepsy and sudden death were observed”. The “duration of transient BBB opening” value ([2]; iv, 0.25 h) was no more than 120 min, the “replenishment of CD8+ T lymphocytes inside the tumor” value (syngeneic mouse glioma) was “significantly enhance the replenishment of CD8+ T lymphocytes” and the “pattern of BBB opening, coronal section” value ([3]; IA 0.1% EA) was “homogenized BBB opening”. For the same compound, the “dose response of BBB disruption” value ([3]; intracardiac 25%, 20%, 3%, 0.3%, 0.1%, 0.03%, 0.01%) was “dose-reverse response”, the “extent of BBB opening (EB dye penetration)” value ([4]; 300 μL 3% EA in 2% EB, microcatheter at origin of MCA) was “site-specific BBB opening, which is limited to the area supplied by the MCA only” and the “delivery of EB dye to target area” value ([4]; EA 0.1% to 0.5%, microcatheter in left ICA) was “can be used to deliver EB dye to the left hemisphere of the brain”. For the same compound, the “delivery of CAR T cells into brain tissue” value [5] was “can deliver BBB-impermeable CAR T cells into normal rat brain tissue”, the “tinted blue color (extravasated Evans blue) in brain” value [6] was “observed in all treatment groups” and the “EB (induced BBB disruption)” value [7] was “observed”. For the same compound, the solubility in water [8] was “infinitely soluble (fully miscible)”, the “tested animals that experienced adverse effects” value ([9]; IA injection 0.3%, 15 mice per group) was “less than 50%” and the “Immediate Sudden Death” value [9, 10] was 0. For the same compound, the “Intermediate-lasting epilepsy post-injection leading to death” value [9, 10] was 0, the “Long-lasting epilepsy post-injection leading death” value [9, 10] was 0 and the “Moderate-lasting epilepsy post-injection and survival to fully recovery” value [9, 10] was 3. For the same compound, the “Transient, mild, or occasional epilepsy post-injection and survival to fully recovery” value [9, 10] was 3, the Mortality ([9]; IA injection 0.3%, 15 mice per group, listed as EA) was 0% and the overall mortality rate ([9]; repeated comparative experiments of IA EA and IA NEO100) was “less than or equal to 1%”.
